Laboratory results as given in patent publication US8084647B2, “Two-photon probe for real-time monitoring of intracellular calcium ions, method for preparing the probe and method for real-time monitoring of intracellular calcium ions using the probe” (Korea University Industry and Academy Cooperation Foundation, priority 2007, dated 2011).
Where two headings read alike, the source gives them in different places. One block for each compound: values may come before it.

What was measured:
[1] = Reactivity for various metal ions (FIG. 10)
Source text: FIG. 10 is a graph showing the reactivity of the compound of Formula 4 for various metal ions;

[2] = tested on: astrocytes; experiment: Two-photon microscopy of cultured astrocytes; assay type: cell-based, rat; conditions: cultured astrocytes labeled with 2 μM probe
Procedure: Astrocytes were taken from cerebral cortices of 1-day-old rats (Sprague-Dawley; SD). Cerebral cortices were dissociated in Hank's balanced salt solution (HBSS; Gibco BRL, Gaithersburg, Md., USA) containing 3 U/ml papain (Worthington Biochemical Corporation, NJ, USA) and plated in 75 mm flasks. To prepare purified astrocytes culture, flasks were shaken for 6 h on a shaker at 37° C., and the floating cells that were displaced into the media were removed. Astrocytes were passaged with 5 min exposure to 0.25% trypsin and replated onto poly-D-lysin-coated glass coverslips at 50˜100 cells/mm^2 and were maintained in Dulbecco's modified Eagle's medium (DMEM; Gibco) supplemented with penicillin/streptomycin and 10% fetal bovine serum (FBS; Gibco) in a CO2 incubator at 37° C. After 7-15 days in vitro, astrocytes were washed three times with serum-free media, and then incubated with 2 μM of the compound of Formula 7 in serum-free media for 20 min at 37° C. The cells were washed three times with phosphate buffered saline (PBS; Gibco) and then imaged after further incubation in colorless serum-free media for 15 min.
The spontaneous increase in [Ca^2+]i also propagated between astrocytes, as indicated by the delayed activity in the neighboring astrocyte (FIGS. 15b and 15d).

[3] = Two-photon excited fluorescence (TPEF) titration with Ca2+ (Kd^TP); assay type: binding; conditions: estimated from the two-photon titration curve
Source text: In order to determine the Kd^TP for the two-photon process, the TPEF spectra were obtained with a DM IRE2 Microscope (Leica) excited by a mode-locked titanium-sapphire laser source (Coherent Chameleon, 90 MHz, 200 fs) set at wavelength 780 nm and output power 1230 mW, which corresponded to approximately 10 mW average power in the focal plane. The TPEF titration curves (FIG. 6) were obtained and fitted to Equation 3.

[4] = One-photon fluorescence titration with Ca2+ (Kd^OP, enhancement factor, Hill plot); assay type: binding; conditions: presence of 39 μM Ca2+
Procedure: A series of calibration solutions containing various [Ca^2+] was prepared by mixing two solutions (solution A containing 10 mM K2EGTA and solution B containing 10 mM CaEGTA) in various ratios. Both solutions contained the compound (1 μM) of Formula 4, 100 mM KCl, 30 mM MOPS, and they were adjusted to pH 7.2.
Then, 203 μl of this solution was discarded and replaced by 203 μl of solution B (39 μM free Ca^2+), and the spectrum was recorded. This brings the CaEGTA concentration to 1.00 mM and the [Ca^2]free to about 0.017 μM with no change in the concentration of the probe or of the total EGTA. The [Ca^2+]free is calculated from the Kd of EGTA for Ca^2+ (150.5 nM) using Equation 2: […]
where F is the observed fluorescence intensity, Fmin is the minimum fluorescence intensity, and Fmax is the maximum fluorescence intensity. The Kd value that best fits the titration curve (FIG. 6) with Equation 5 was calculated by using the Excel program as reported (J. R. Long, R. S. Drago, J. Chem. Ed. 1982, 59, 1037; K. Hirose, J. Incl. Phenom. Macrocycl. Chem. 2001, 39, 193).
The dissociation constants (Kd^OP) were calculated from the fluorescence titration curves (FIG. 6), as reported (J. R. Long, R. S. Drago, J. Chem. Educ. 1982, 59, 1037-1039).

[5] = tested on: acute rat hypothalamic slice; experiment: Two-photon microscopy of acute rat hypothalamic slices; assay type: cell-based
Procedure: Slices were prepared from the hippocampi and the hypothalmic of 2-day-old rat (SD). Coronal slices were cut into 400 μm thick using a vibrating-blade microtome in artificial cerebrospinal fluid (ACSF; 138.6 mM NaCl, 3.5 mM KCl, 21 mM NaHCO3, 0.6 mM NaH2PO4, 9.9 mM D-glucose, 1 mM CaCl2, and 3 mM MgCl2). Slices were incubated with the compound (10 μM) of Formula 7 in ACSF bubbled with 95% O2 and 5% CO2 for 30 min at 37° C. Slices were then washed three times with ACSF and transferred to glass-bottomed dishes (MatTek) and observed in a spectral confocal multi photon microscope.

[6] = Two-photon action spectra / two-photon cross section; assay type: physicochemical
Procedure: Thus, TPM images for samples stained with the compound of Formula 4 would be much brighter than those stained with commercial probe. In addition, the two-photon fluorescence enhancement factor (TFEF) estimated from the two-photon titration curve was 44 (Table 2), a value that allowed detection of Ca^2+ by TPM.
The two-photon cross section (δ) was determined by using femto second (fs) fluorescence measurement technique (S. K. Lee, W. J. Yang, J. J. Choi, C. H. Kim, S.-J, Jeon, B. R. Cho, Org. Lett. 2005, 7, 323-326).

[7] = One-photon absorption and emission spectra, fluorescence quantum yield; assay type: physicochemical; conditions: for Φ fluorescence quantum yield: ±10%
Procedure: The absorption spectra of the compound of Formula 7 were recorded on a Hewlett-Packard 8453 diode array spectrophotometer, and the fluorescence spectra of the compound were obtained with Amico-Bowman series 2 luminescence spectrometer with a 1 cm standard quartz cell. The fluorescence quantum yield of the compound was determined by using Coumarin 307 as the reference by the literature method (J. N. Demas, G. A. Crosby, J. Phys. Chem. 1971, 75, 991-1024.).

[8] = Effect of pH on the reactivity (FIG. 11); assay type: physicochemical; conditions: biologically relevant pH range
Source text: FIG. 11 is a graph showing the effect of pH on the reactivity of the compound of Formula 4;

[9] = previously reported value, cited from earlier work
[10] = prolonged observation time in tissue
[11] = 30 mM MOPS, 100 mM KCl, 10 mM EGTA, pH 7.2, absence of free Ca2+
[12] = MOPS buffer pH 7.2, presence of 39 μM free Ca2+

FEF^TP two-photon fluorescence enhancement factor [3]: 44 | FEF^OP fluorescence enhancement factor (F − Fmin)/Fmin, one-photon [4]: 40 | fluorescence enhancement factor relative to OG1 [4]: ~3 fold | photo-stability [5, 10]: high photo-stability | Φδ / TPEF relative to OG1-Ca2+ ([6]; Ca2+ complexes in buffer): 5 fold | Φδ two-photon action cross section ([6]; presence of 39 μM free Ca2+): 110 GM | λmax^(2) of the two-photon excitation spectra ([6]; presence of 39 μM free Ca2+): 780 nm | δ peak two-photon cross section ([6]; presence of 39 μM free Ca2+, ±15%): 230 GM | λmax^(l) one-photon absorption [7, 11]: 365 nm | λmax^fl one-photon emission [7, 11]: 498 nm | Φ fluorescence quantum yield [7, 11]: 0.012 | λmax^(l) one-photon absorption [7, 12]: 365 nm | λmax^fl one-photon emission [7, 12]: 498 nm | Φ fluorescence quantum yield [7, 12]: 0.49 | pH sensitivity [8]: pH-insensitive
Compound: CC(=O)c1ccc2cc(N(C)CC(=O)Nc3ccc(N(CC(=O)O)CC(=O)O)c(OCCOc4ccccc4N(CC(=O)O)CC(=O)O)c3)ccc2c1 [Formula 4]
response toward CO^2+ [1]: much weaker response | response toward Cu^2+ [1]: no response | response toward Fe^2+ [1]: much weaker response | response toward Mg^2+ [1]: much weaker response | response toward Mn^2+ [1]: modest response | response toward Zn^2+ [1]: modest response | visualization of calcium waves by TPM [2]: clearly capable of visualizing the intra- and intercellular calcium waves | imaging depth in live tissue ([5]; TPM): ~170 μm | photo-toxicity [5, 10]: low photo-toxicity

Compound: Oregon Green 488 BAPTA-1 [OG1]
FEF^OP fluorescence enhancement factor (F − Fmin)/Fmin, one-photon [9]: 14 | FEF^OP fluorescence enhancement factor (F − Fmin)/Fmin, one-photon ([9]; listed as OG1 + Ca^2+): 14^[l]/nd
